Broadly, the inhibition is the share of the control response that was lost under treatment.

The structures appear in SMILES notation.

These results are taken from US4767776A, “N-1H-tetrazol-5-yl-2-naphthalene carboxamides and their use as antiallergy and antiinflammatory agents” (Warner-Lambert Company, priority 1987, dated 1988).

One assay deals with human basophils. The assay is described as follows: Histamine release from human basophils (HHB). It is filed as cell-based. The note with it: anti-IgE stimulus, at highest dose tested, column head: tested at 33 μM, read-out: % Inhibition of Histamine Release with Anti-IgE Stimulus (at highest dose tested). As to the method:
HISTAMINE RELEASE FROM HUMAN BASOPHILS
The blood samples are placed briefly on a rotary mixer. All glassware contacting the blood is siliconized. The blood is aliquoted into three plastic 50 ml centrifuge tubes and the volume is noted. Hespan (hydroxy ethyl starch), 0.5 ml per 1.0 ml of blood, is added. The tubes are inverted several times to mix and are left undisturbed at room temperature until a sharp separation is observed between the settled red cells and the leukocyte and platelet-rich plasma. This usually occurs within 35-45 minutes.
The plasma fraction is pipetted off and placed into two clean plastic 50 ml centrifuge tubes. […] The platelets remain in the plasma and are discarded. The pelleted leukocytes are shaken gently to disrupt the cell button and washed twice as described:
Wash 1. Five ml of HA buffer with 0.005M EDTA is added to the dispersed cells in each tube and gently vortexed. 25 ml of buffer is then added and gently vortexed. The samples are again centrifuged as described earlier. The supernatant is poured off, and the cell button in each tube is gently dispersed.
Wash 2. Five ml of HA buffer with EDTA is added to each tube to resuspend the cells. Leukocytes are then pooled into one tube and the volume is brought up to 40 ml with HA buffer with EDTA and gently vortexed. […] The supernatant fluid is discarded and the cell button is dispersed. Sixteen ml of HACM buffer is added to the washed cells and gently vortexed. A sample is prepared for Hematology, where a total white blood cell and platelet count is done using a Coulter Counter.
Aliquots (0.1 ml) of cells are added to assay tubes containing 0.4 ml of either 6% perchloric acid (for total histamine content), vehicle control (for spontaneous release), or drug. The tubes are incubated at room temperature for 8 minutes, and then placed in a 37° water bath for two more minutes. Buffer or challenge agents (at 37°) are added to the tube and they are incubated for an additional 45 minutes at 37°. The tubes are then spun at 2000 RPM (1200 g) for three minutes to pellet the cells and the supernatants are poured into assay cups.
If the compound is in solution, distilled water is used to bring it up to 100 ml total volume. If the drug is not in solution, 0.2 ml 1N NaOH (or HCl) is added, and then distilled water is added to yield 100 ml total solution. Five ml of the stock solution is diluted (1:2) with 5 ml of two times concentrated HACM (Hepes Albumin Calcium Magnesium) buffer to yield the stock working concentration of 150 μM. […] Further dilutions are made with HACM buffer for 33, 10, 3.3, 1.0 μM, etc.
Short ragweed and house dust extracts (Greer Laboratories, Inc.) are supplied as aqueous extracts in stock concentrations of 40,000 and 10,000 protein nitrogen units per milliliter (PNU/ml), respectively. Aqueous solutions of anti-IgE antisera (rabbit-raised antibody) are purchased from Dako via Accurate Chemicals. The tripeptide f-met-leu-phe (fmlp) from Vega Biochemicals is used. The aqueous solutions of ragweed, house dust, and anti-IgE are diluted 1:2 with two times concentrated HACM and then further diluted with HACM to yield final stock concentrations of […] for ragweed and house dust, and a 1:50 dilution for the anti-IgE antisera. […] The pH is adjusted to 7.4. Further dilutions for working solutions are made in HACM buffer. All stock and working solutions are stored at 4°. Working solutions comprise 1/6 of the final volume in the cell reaction, therefore, working solutions of challenge agents are made up six times the required final concentration (i.e., 600 μM f-met-leu-phe yields 100 μM final concentration in the cellular reaction).
Samples are run in triplicate, using either 1.5 ml polypropylene-capped reaction tubes, or 5.0 ml plastic uncapped tubes.
With `CC(C)Oc1ccc2ccc(C(=O)Nc3nnn[nH]3)c(OC(C)C)c2c1` [Example 27, 1,7-bis(1-Methylethoxy)-N-1H-tetrazol-5-yl-2-naphthalenecarboxamide], the inhibition at 33 µM was 0%.

The assay is the same for the next values; noted with them: anti-IgE stimulus, tested at 33 μM, read-out: % Inhibition of Histamine Release with Anti-IgE Stimulus.
Regarding `COc1ccc2c(OC(C)C)c(C(=O)Nc3nnn[nH]3)ccc2c1` [Example 22, 6-Methoxy-1-(1-methylethoxy)-N-1H-tetrazol-5-yl-2-naphthalenecarboxamide], the inhibition at 33 µM is 71%.
On the same count and under the same terms, under `CC(C)Oc1c(C(=O)Nc2nnn[nH]2)ccc2ccccc12` [Example 23, 1-(1-Methylethoxy)-N-1H-tetrazol-5-yl-2-naphthalenecarboxamide] stands 16%; under `COc1ccc2ccc(C(=O)Nc3nn[nH]n3)c(OC)c2c1` [Example 24, 1,7-Dimethoxy-N-1H-tetrazol-5-yl-2-napthalenecarboxamide], 57%.
Same read-out and setting: then `COc1cccc2c(OC(C)C)c(C(=O)Nc3nnn[nH]3)ccc12` [Example 25, 5-Methoxy-1-(1-methylethoxy)-N-1H-tetrazol-5-yl-2-naphthalenecarboxamide], with 11%; and `COc1ccc2ccc(C(=O)Nc3nnn[nH]3)c(OC(C)C)c2c1` [Example 26, 7-Methoxy-1-(1-methylethoxy)-N-1H-tetrazol-5-yl-2-naphthalenecarboxamide], with 91%.
